Assay results taken from patent publication US20020137929A1, “1 - (3-heterocyclylphenyl) isothiourea, -isourea, -guanidine and -amidine herbicidal agents” (Intellectual Property Department, BASF Aktiengesellschaft, priority 1998, published 2002).

How the values were obtained:
CYPSE (Flatsedge) = assay: Preemergence weed control under flooded paddy conditions; assay type: in vivo, Cyperus serotinus; settings: rated 3-4 weeks after treatment
How it was run: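 Values are visual 0-9 scores against a control for a preemergence application into paddy flood water at about 0.0313 to 0.500 kg/ha. Greenhouse duration was three to four weeks.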

ZEAMX (Corn, Field) [1] = assay: Postemergence herbicidal evaluation; assay type: in vivo, Zea mays; settings: for Herbicidal rating ZEAMX: postemergence
How it was run: (§1)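 Compound is applied as a foliar spray to seedlings about two weeks old, formulated in equal parts acetone and water with 0.5% TWEEN 20 and delivered at 40 psi to give about 0.0156–0.500 kg per hectare. Injury is rated visually 0–9 after four to five weeks.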

CYPIR (Rice Flatsedge) = assay: Preemergence weed control under flooded paddy conditions; assay type: in vivo, Cyperus iria; settings: rated 3-4 weeks after treatment
How it was run: (§2)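 Seeds or propagules sown in top 0.5 cm of silt loam soil, flooded 1.5 to 3 cm above surface throughout. Compound in 50/50 v/v aqueous/acetone pipetted into flood water at about 0.0313 to 0.500 kg/ha. Visual 0-9 rating versus control after three to four weeks in greenhouse.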

ECHCG (Barnyardgrass) = assay: Preemergence herbicidal evaluation; assay type: in vivo, Echinochloa crus-galli; settings: rated 4-5 weeks after treatment
How it was run: (§3)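 Seeds were planted in potting soil in cups, then sprayed preemergence with the test compound in aqueous acetone at about 0.0156 to 0.500 kg per hectare. Cups were kept under greenhouse conditions and visually rated 4–5 weeks after treatment on a 0–9 scale against an untreated control.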

[2] = tested on: TRZAWR (Wheat, Winter, cv Riband); assay: Preemergence herbicidal evaluation; assay type: in vivo, Triticum aestivum; settings: rated 4-5 weeks after treatment
How it was run: as §3

SETVI (Foxtail, Green) [3] = assay: Postemergence herbicidal evaluation; assay type: in vivo, Setaria viridis; settings: for Herbicidal rating SETVI: postemergence
How it was run: as §1

ORYSAT (Rice, Tebonnet) = assay: Postemergence herbicidal evaluation; assay type: in vivo, Oryza sativa, (L.) Tebonnet; settings: for Herbicidal rating ORYSAT: postemergence
How it was run: as §1

SETVI (Foxtail, Green) [4] = assay: Preemergence herbicidal evaluation; assay type: in vivo, Setaria viridis; settings: rated 4-5 weeks after treatment
How it was run: as §3

ZEAMX (Corn, Field) [5] = assay: Preemergence herbicidal evaluation; assay type: in vivo, Zea mays; settings: rated 4-5 weeks after treatment
How it was run: as §3

[6] = tested on: ECHORC (Watergrass (Calif.)); assay: Preemergence weed control under flooded paddy conditions; assay type: in vivo, Echinochloa oryzoides; settings: rated 3-4 weeks after treatment
How it was run: as §2

`Cn1c(C(F)(F)F)cc(=O)n(-c2cc(N=C3SCC(=O)N3C3CCC3)c(Cl)cc2F)c1=O` [Compound 168, 3-{4-Chloro-5-[(3-cyclobutyl-4-oxo-2-thiazolidinylidene)amino]-2-fluorophenyl}-1-methyl-6-(trifluoromethyl)-2,4(1H,3H)-pyrimidinedione] was tested. Which “herbicidal effect rating, CYPSE” value (CYPSE (Flatsedge); 0.0313 kg/ha) did it give?
Its value is 0.0.

What about the “herbicidal effect rating, CYPSE” value (CYPSE (Flatsedge); 0.0625 kg/ha) of the same molecule?
The value was 0.0.

And the “herbicidal effect rating, CYPSE” value (CYPSE (Flatsedge); 0.1250 kg/ha)?
Its value is 0.0.

What about the “Herbicidal rating ZEAMX” value (ZEAMX (Corn, Field) [1]; rate 0.0156 kg/ha) of the same molecule?
The value was 4.5.

And the “Herbicidal rating ZEAMX” value (ZEAMX (Corn, Field) [1]; rate 0.0313 kg/ha)?
Its value is 4.5.

What about the “Herbicidal rating ZEAMX” value (ZEAMX (Corn, Field) [1]; rate 0.0625 kg/ha) of the same molecule?
The value was 7.0.

What about the “herbicidal effect rating, CYPIR” value (CYPIR (Rice Flatsedge); 0.0313 kg/ha) of the same molecule?
Its value is 0.0.

And the “herbicidal effect rating, CYPIR” value (CYPIR (Rice Flatsedge); 0.0625 kg/ha)?
Its value is 0.0.

What about the “herbicidal effect rating, CYPIR” value (CYPIR (Rice Flatsedge); 0.1250 kg/ha) of the same molecule?
The value was 0.0.

And the “herbicidal effect rating, CYPIR” value (CYPIR (Rice Flatsedge); 0.2500 kg/ha)?
Its value is 0.0.

What about the “Preemergence herbicidal rating ECHCG” value (ECHCG (Barnyardgrass); 0.0156 kg/ha) of the same molecule?
Its value is 0.0.

And the “Preemergence herbicidal rating ECHCG” value (ECHCG (Barnyardgrass); 0.0313 kg/ha)?
Its value is 0.0.

What about the “Preemergence herbicidal rating ECHCG” value (ECHCG (Barnyardgrass); 0.0625 kg/ha) of the same molecule?
The value was 0.0.

What about the “Preemergence herbicidal rating ECHCG” value (ECHCG (Barnyardgrass); 0.1250 kg/ha) of the same molecule?
The value was 0.0.

And the “Preemergence herbicidal rating ECHCG” value (ECHCG (Barnyardgrass); 0.2500 kg/ha)?
The value was 0.0.

What about the “Preemergence herbicidal rating TRZAWR” value ([2]; 0.0156 kg/ha) of the same molecule?
The value was 0.0.

And the “Preemergence herbicidal rating TRZAWR” value ([2]; 0.0313 kg/ha)?
Its value is 0.0.

And the “Preemergence herbicidal rating TRZAWR” value ([2]; 0.0625 kg/ha)?
The value was 0.0.

And the “Preemergence herbicidal rating TRZAWR” value ([2]; 0.1250 kg/ha)?
The value was 0.0.

What about the “Preemergence herbicidal rating TRZAWR” value ([2]; 0.2500 kg/ha) of the same molecule?
Its value is 0.0.

And the “Herbicidal rating SETVI” value (SETVI (Foxtail, Green) [3]; rate 0.0156 kg/ha)?
Its value is 0.0.

What about the “Herbicidal rating SETVI” value (SETVI (Foxtail, Green) [3]; rate 0.0313 kg/ha) of the same molecule?
The value was 0.0.

What about the “Herbicidal rating SETVI” value (SETVI (Foxtail, Green) [3]; rate 0.0625 kg/ha) of the same molecule?
Its value is 3.0.

And the “Herbicidal rating ORYSAT” value (ORYSAT (Rice, Tebonnet); rate 0.0156 kg/ha)?
The value was 1.0.

And the “Herbicidal rating ORYSAT” value (ORYSAT (Rice, Tebonnet); rate 0.0313 kg/ha)?
Its value is 1.5.

What about the “Herbicidal rating ORYSAT” value (ORYSAT (Rice, Tebonnet); rate 0.0625 kg/ha) of the same molecule?
Its value is 2.5.

And the “Preemergence herbicidal rating SETVI” value (SETVI (Foxtail, Green) [4]; 0.0156 kg/ha)?
The value was 0.0.

And the “Preemergence herbicidal rating SETVI” value (SETVI (Foxtail, Green) [4]; 0.0313 kg/ha)?
Its value is 0.0.

And the “Preemergence herbicidal rating SETVI” value (SETVI (Foxtail, Green) [4]; 0.0625 kg/ha)?
Its value is 0.0.

What about the “Preemergence herbicidal rating SETVI” value (SETVI (Foxtail, Green) [4]; 0.1250 kg/ha) of the same molecule?
Its value is 0.0.

And the “Preemergence herbicidal rating SETVI” value (SETVI (Foxtail, Green) [4]; 0.2500 kg/ha)?
The value was 5.0.

What about the “Preemergence herbicidal rating ZEAMX” value (ZEAMX (Corn, Field) [5]; 0.0156 kg/ha) of the same molecule?
The value was 0.0.

And the “Preemergence herbicidal rating ZEAMX” value (ZEAMX (Corn, Field) [5]; 0.0313 kg/ha)?
The value was 0.0.

What about the “Preemergence herbicidal rating ZEAMX” value (ZEAMX (Corn, Field) [5]; 0.0625 kg/ha) of the same molecule?
The value was 0.0.

What about the “Preemergence herbicidal rating ZEAMX” value (ZEAMX (Corn, Field) [5]; 0.1250 kg/ha) of the same molecule?
The value was 0.0.

And the “Preemergence herbicidal rating ZEAMX” value (ZEAMX (Corn, Field) [5]; 0.2500 kg/ha)?
Its value is 0.0.

And the “herbicidal effect rating, ECHORC” value ([6]; 0.0313 kg/ha)?
Its value is 0.0.

What about the “herbicidal effect rating, ECHORC” value ([6]; 0.0625 kg/ha) of the same molecule?
The value was 0.0.

And the “herbicidal effect rating, ECHORC” value ([6]; 0.1250 kg/ha)?
The value was 0.0.

What about the “herbicidal effect rating, ECHORC” value ([6]; 0.2500 kg/ha) of the same molecule?
The value was 0.0.

For `COCCCN1C(=O)CSC1=Nc1cc(-n2c(=O)cc(C(F)(F)F)n(C)c2=O)c(F)cc1Cl` [Compound 172, 3-{4-Chloro-2-fluoro-5-{[3-(3-methoxypropyl)-4-oxo-2-thiazolidinylidene]amino}phenyl}-1-methyl-6-(trifluoromethyl)-2,4(1H, 3H)-pyrimidinedione], which “herbicidal effect rating, CYPSE” value (CYPSE (Flatsedge); 0.0625 kg/ha) is on record?
Its value is 6.0.

What about the “herbicidal effect rating, CYPSE” value (CYPSE (Flatsedge); 0.1250 kg/ha) of the same molecule?
The value was 9.0.

What about the “herbicidal effect rating, CYPSE” value (CYPSE (Flatsedge); 0.2500 kg/ha) of the same molecule?
Its value is 9.0.

What about the “Postemergence herbicidal rating ZEAMX” value (ZEAMX (Corn, Field) [1]; Rate 0.0313 kg/ha) of the same molecule?
The value was 5.0.

And the “Postemergence herbicidal rating ZEAMX” value (ZEAMX (Corn, Field) [1]; Rate 0.0625 kg/ha)?
Its value is 5.0.

What about the “Postemergence herbicidal rating ZEAMX” value (ZEAMX (Corn, Field) [1]; rate 0.0156 kg/ha) of the same molecule?
Its value is 5.0.

And the “herbicidal effect rating, CYPIR” value (CYPIR (Rice Flatsedge); 0.0313 kg/ha)?
Its value is 5.0.

What about the “herbicidal effect rating, CYPIR” value (CYPIR (Rice Flatsedge); 0.0625 kg/ha) of the same molecule?
The value was 7.0.

And the “herbicidal effect rating, CYPIR” value (CYPIR (Rice Flatsedge); 0.1250 kg/ha)?
The value was 8.0.

What about the “herbicidal effect rating, CYPIR” value (CYPIR (Rice Flatsedge); 0.2500 kg/ha) of the same molecule?
Its value is 9.0.

What about the “Preemergence herbicidal rating ECHCG” value (ECHCG (Barnyardgrass); 0.0156 kg/ha) of the same molecule?
Its value is 4.0.

And the “Preemergence herbicidal rating ECHCG” value (ECHCG (Barnyardgrass); 0.0313 kg/ha)?
Its value is 6.0.

And the “Preemergence herbicidal rating ECHCG” value (ECHCG (Barnyardgrass); 0.0625 kg/ha)?
The value was 8.0.

What about the “Preemergence herbicidal rating ECHCG” value (ECHCG (Barnyardgrass); 0.1250 kg/ha) of the same molecule?
The value was 8.0.

What about the “Preemergence herbicidal rating ECHCG” value (ECHCG (Barnyardgrass); 0.2500 kg/ha) of the same molecule?
The value was 9.0.

And the “Preemergence herbicidal rating TRZAWR” value ([2]; 0.0156 kg/ha)?
Its value is 2.0.

What about the “Preemergence herbicidal rating TRZAWR” value ([2]; 0.0313 kg/ha) of the same molecule?
Its value is 3.0.

And the “Preemergence herbicidal rating TRZAWR” value ([2]; 0.0625 kg/ha)?
Its value is 7.0.

And the “Preemergence herbicidal rating TRZAWR” value ([2]; 0.1250 kg/ha)?
The value was 7.0.

What about the “Preemergence herbicidal rating TRZAWR” value ([2]; 0.2500 kg/ha) of the same molecule?
The value was 9.0.

And the “Postemergence herbicidal rating SETVI” value (SETVI (Foxtail, Green) [3]; Rate 0.0313 kg/ha)?
Its value is 3.0.

What about the “Postemergence herbicidal rating SETVI” value (SETVI (Foxtail, Green) [3]; Rate 0.0625 kg/ha) of the same molecule?
The value was 2.0.

And the “Postemergence herbicidal rating SETVI” value (SETVI (Foxtail, Green) [3]; rate 0.0156 kg/ha)?
Its value is 2.0.

And the “Postemergence herbicidal rating ORYSAT” value (ORYSAT (Rice, Tebonnet); Rate 0.0313 kg/ha)?
The value was 3.5.

And the “Postemergence herbicidal rating ORYSAT” value (ORYSAT (Rice, Tebonnet); Rate 0.0625 kg/ha)?
Its value is 4.0.

What about the “Postemergence herbicidal rating ORYSAT” value (ORYSAT (Rice, Tebonnet); rate 0.0156 kg/ha) of the same molecule?
Its value is 3.5.

And the “Preemergence herbicidal rating SETVI” value (SETVI (Foxtail, Green) [4]; 0.0156 kg/ha)?
Its value is 5.0.

And the “Preemergence herbicidal rating SETVI” value (SETVI (Foxtail, Green) [4]; 0.0313 kg/ha)?
Its value is 7.0.

What about the “Preemergence herbicidal rating SETVI” value (SETVI (Foxtail, Green) [4]; 0.0625 kg/ha) of the same molecule?
The value was 9.0.

What about the “Preemergence herbicidal rating SETVI” value (SETVI (Foxtail, Green) [4]; 0.1250 kg/ha) of the same molecule?
Its value is 9.0.

What about the “Preemergence herbicidal rating SETVI” value (SETVI (Foxtail, Green) [4]; 0.2500 kg/ha) of the same molecule?
The value was 9.0.

And the “Preemergence herbicidal rating ZEAMX” value (ZEAMX (Corn, Field) [5]; 0.0156 kg/ha)?
The value was 4.0.

And the “Preemergence herbicidal rating ZEAMX” value (ZEAMX (Corn, Field) [5]; 0.0313 kg/ha)?
Its value is 7.0.

What about the “Preemergence herbicidal rating ZEAMX” value (ZEAMX (Corn, Field) [5]; 0.0625 kg/ha) of the same molecule?
The value was 8.0.

And the “Preemergence herbicidal rating ZEAMX” value (ZEAMX (Corn, Field) [5]; 0.1250 kg/ha)?
The value was 9.0.

And the “Preemergence herbicidal rating ZEAMX” value (ZEAMX (Corn, Field) [5]; 0.2500 kg/ha)?
The value was 9.0.

What about the “herbicidal effect rating, ECHORC” value ([6]; 0.0313 kg/ha) of the same molecule?
Its value is 6.0.

What about the “herbicidal effect rating, ECHORC” value ([6]; 0.0625 kg/ha) of the same molecule?
The value was 9.0.

And the “herbicidal effect rating, ECHORC” value ([6]; 0.1250 kg/ha)?
Its value is 9.0.

What about the “herbicidal effect rating, ECHORC” value ([6]; 0.2500 kg/ha) of the same molecule?
The value was 9.0.
